Several values for one entry are separate records, joined by “and”; a condition that tells them apart may be missing. Equal values may be shown once. Read-outs that look alike come from different tables or passages of the source.
Assays:
[1] = test system: P. falciparum line 1AC5 (8-10-fold reduced PfSUB1); assay: Parasite growth assay, PfSUB1 knock-down 1AC5 line; assay type: cell-based, Plasmodium falciparum; settings: for EC50: Plasmodium falciparum, 96 h, read-out: EC50 parasite growth, 1AC5 line
Text: (§1) The DiCre-expressing P. falciparum line B11 (derived from a 3D7 background) has been described in full previously.[45] To generate a mutant line selectively expressing reduced levels of PfSUB1, we exploited the anhydrotetracycline (aTc)-inducible TetR aptamer system described by Niles and colleagues[46] and subsequently adapted by Rajaram et al.[47] Briefly, the B11 line was first modified by the incorporation into the genomic Pfs47 locus of a cassette for constitutive expression of a TetR-DOZI fusion protein. The 3’ flanking region of the SUB1 gene was then modified by incorporation of 10 Tet repressor-binding aptamers, following by limiting dilution cloning to obtain a genetically homogenous line called 1AC5. […] Complete details of the characterization of this parasite line will be provided in a separate manuscript.
(§2) The effects of test compounds on in vitro growth of the B11 and 1AC5 P. falciparum lines was determined by flow cytometry as described previously.[48] Briefly, synchronous ring-stage parasites at 0.1% parasitaemia and 2% haematocrit were dispensed into flat-bottomed 96-well culture plates (200 ul per well) each containing 1 ul of appropriate serial dilutions of boronic acid or control antimalarial compounds in DMSO. Control wells contained DMSO only. Following incubation in sealed, humidified gassed chambers at 37°C for 96 h to allow the parasites to undergo two entire cycles of erythrocytic growth, cells were fixed, stained with SYBR green and analysed by flow cytometry on a BD FACSVerse™ using BD FACSuite™ software. Data were analysed using FlowJo software. EC50 values and statistical data were determined from dose-response curves generated using GraphPad Prism 10 (GraphPad Software).

[2] = biological target: T1, human 20S proteasome (H20S), chymotrypsin-like β5 activity (Homo sapiens, UniProt P20618+P28074); assay: Human 20S proteasome kinetic assay (chymotrypsin-like β5 activity); assay type: biochemical; settings: purified human 20S proteasome, β5 activity, substrate LLVY-R110, fluorescence; duplicate; read-out: IC50, nM H20S inhibition
T1 construct: variant as stated: H20S
Method: (§3) The fluorescent Proteasome substrate LLVY-R110 (ex: 490 nm, Em:525 nm) (#MAK172, Sigma-Aldrich) was used to measure the chymotrypsin-like activity (β5) of the human 20S proteasome and was prepared according to the activity assay kit instructions. Cleavage of this peptide generated intense green fluorescence due to the R110 group and was monitored at 520-530 nm with excitation at 480-500 nm. The purified human 20S proteasome (BML-PW8720-0050, EnzoSciences), stored at 1mg/ml in 20 mM Tris-HCl pH 7.2, 1mM EDTA, 1mM DTT 1mM NaN3, 50% glycerol was diluted in TRIS-buffered saline (TBS, pH 7.4) to an intermediate concentration of 0.44 μM. […] The reactions were performed in white 96-well fluorescent microtiter-plate format (Nunc). The Substrate solution was added first (100 μl), followed by 1 μl of the inhibitor (50 μM intermediate stock) and 1 μl of the H20S proteasome at 0.44 μM. The IC50s were determined for a selection of potent PfSUB1 inhibitors. After sequential dilution of the inhibitors in 100% DMSO, 1 μl of each dilution was used in a 100 μl reaction containing the fluorescent substrate. The reaction was initiated by the addition of 1 μl of the 20S proteasome intermediate stock solution. The fluorescence increase was monitored using a SpectraMax M5e plate reader and SoftMax Pro-6.3 software Measure activity on a plate reader (ex: 490 nm, Em: 525 nm) with the photomultiplier tube (PMT) set to medium with readings every 3 min for one hour. All measurements were done in duplicate. The progress curves were plotted within GraphPad Prism 9.5.0.

HepG2 cells = assay: Mammalian cell cytotoxicity assay (resazurin); assay type: cell-based; settings: for CC50 (concentration that reduced cell viability by 50%): HepG2, 48 h treatment, resazurin, triplicate, tested up to 30 μM (1a), 200 μM (4c), 150 μM (tipifarnib)
Method: HepG2 cells were cultured in Dulbecco’s Modified Eagle Medium with F12 GlutaMAX (DMEM/F12 GlutaMAX) (Gibco) supplemented with 10% (v/v) heat-inactivated foetal calf serum (FCS), 1% L-glutamine and 1% penicillin-streptomycin (10,000 U/ml), and maintained in a humidified 5% CO2 incubator at 37°C. The culture medium was changed every 2-3 days and cells were passaged when a confluency of 75-80% was reached. At passage 2 or above, HepG2 cells were harvested using 0.25% trypsin-0.53 mM EDTA (Gibco). Cell counts and cell viability were determined by an automated cell counting machine (vi-CELL, Beckman) and seeded at a density of 1x10^4-5x10^5 cells per well in a transparent flat-bottom 96-well plate (Corning), and maintained in a humidified 5% CO2 incubator at 37°C. […] As a vehicle control, 1% DMSO was used. After 48 hs, media was removed and replaced with 100 μl media containing 10% resazurin solution (Invitrogen) and incubated for 4 h at 37°C in 5% CO2. After 4 h, the solution was transferred to an opaque 96-well plate (Corning) to measure reduction of resazurin to resorufin using a SpectraMax M5 microplate reader (Molecular Devices LLC) (ex. 560 nm, em. 590 nm). Cells without treatment compounds were used to determine 100% viability. Cell viability was determined by measuring fluorescence as a % of solvent control. Concentration viability response curves, CC50 values, mean CC50 value and standard error were generated using GraphPad Prism 10 (GraphPad Software).

P. falciparum line B11 = assay: Parasite growth assay, wild-type B11 line; assay type: cell-based; settings: Plasmodium falciparum, 96 h, read-out: EC50 parasite growth, B11 line
Text: as §1, with “To generate a mutant line selectively expressing reduced levels of PfSUB1, we exploited the anhydrotetracycline (aTc)-inducible TetR aptamer system described by Niles and colleagues[46] and subsequently adapted by Rajaram et al.[47]” left out
as §2

[3] = biological target: T2, recombinant PfSUB1 (rPfSUB1) (Plasmodium falciparum, UniProt Q8I0V0); assay: PfSUB1 enzyme assay (recombinant PfSUB1, fluorogenic peptide substrate); assay type: biochemical
T2 construct: made in house
T2 sequence (Q8I0V0 218-688): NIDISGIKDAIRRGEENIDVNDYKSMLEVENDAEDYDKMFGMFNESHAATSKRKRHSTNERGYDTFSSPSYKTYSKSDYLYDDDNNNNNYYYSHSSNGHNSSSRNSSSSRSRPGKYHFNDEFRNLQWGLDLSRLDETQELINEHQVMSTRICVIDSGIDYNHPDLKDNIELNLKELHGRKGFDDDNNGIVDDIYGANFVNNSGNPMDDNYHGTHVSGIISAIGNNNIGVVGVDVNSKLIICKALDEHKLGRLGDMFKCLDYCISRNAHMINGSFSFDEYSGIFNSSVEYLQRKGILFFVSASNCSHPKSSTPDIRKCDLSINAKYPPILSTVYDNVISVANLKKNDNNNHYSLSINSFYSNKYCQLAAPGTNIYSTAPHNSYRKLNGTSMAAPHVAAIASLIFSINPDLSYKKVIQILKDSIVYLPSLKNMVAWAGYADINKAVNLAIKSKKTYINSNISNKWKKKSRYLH
Method: The proteolytic activity of rPfSUB1 was monitored by the cleavage of the fluorogenic peptidic substrate SERA4st1F-6R12 (Ac-[…]-OH) and has been described previously.[28] Briefly, chymotrypsin treated rPfSUB1 (expressed and purified as described before […] was stored at −80 °C as a 228 U/mL stock in 20 mM Tris−HCl pH 8.2, 150 mM NaCl, 10% glycerol, and diluted for use (1:500) in reaction buffer (20 mM Tris−HCl pH 8.2, 150 mM NaCl, 12 mM CaCl2, 25 mM CHAPS). Peptidic boronic acid inhibitors were dissolved in 100% DMSO at 20 mM, then further diluted in DMSO to generate stock solutions ranging from 500 to 0.01 μM and then used diluted 1:100 in the enzyme reactions. All reactions were performed in wells of white 96-well microwell plates (Nunc); 50 μL diluted rPfSUB1 was preincubated for 5 min with 1 μL each of the serially diluted boronic acid inhibitors, followed by addition of 50 μL substrate solution (0.1 μM final). Subsequent fluorescence increase was continuously monitored using a SpectraMax M5e plate reader and SoftMax Pro-6.3 software, with readings taken every 3 min for 60 min using excitation and emission values of 552 and 580 nm, respectively. […] All experiments were performed in duplicate.

[4] = test system: human 20S proteasome (H20S), chymotrypsin-like β5 activity; assay: Human 20S proteasome kinetic assay (chymotrypsin-like β5 activity); assay type: biochemical; settings: PfSUB1 vs H20S inhibition
Method: as §3

[5] = 2 erythrocytic cycles, SYBR green flow cytometry, triplicate, 95% confidence interval in parentheses

For `CC(=O)N[C@H](C(=O)N[C@H](C(=O)NCC(=O)N[C@@H](C)B(O)O)C(C)C)C1CCCC1` [1a], the EC50 [1] was 130 nM, the IC50 [2] was 32.8 ± 1.7 nM and the “CC50 (concentration that reduced cell viability by 50%)” value (HepG2 cells) was 11000 nM. The EC50 (P. falciparum line B11; [5]) was 150 nM.
With `CC[C@H](C)[C@H](NC(=O)[C@@H](NC(=O)c1cc(C)cc(C)c1)C1CCCC1)C(=O)NCC(=O)N[C@H]1CCC(=O)OB1O` [4c, N-((S)-1-cyclopentyl-2-(((2S,3S)-1-((2-(((R)-2-hydroxy-6-oxo-1,2-oxaborinan-3-yl)amino)-2-oxoethyl)amino)-3-methyl-1-oxopentan-2-yl)amino)-2-oxoethyl)-3,5-dimethylbenzamide] the EC50 [1] was 160 nM, the “fold higher sensitivity of 1AC5 line than of B11 line” value ([1]; growth inhibition, 1AC5 vs wild-type B11) was 13 fold and ~ 13 fold and the IC50 [3] was 15.3 ± 0.1 nM. For the same molecule, the “selectivity versus H20S” value [4] was over 60 fold, the “CC50 (concentration that reduced cell viability by 50%)” value (HepG2 cells) was 296000 nM and the “factor by which less toxic to HepG2 than 1a” value (HepG2 cells; HepG2 CC50 of 4c vs 1a) was 27 fold. The EC50 (P. falciparum line B11; [5]) was 2260 nM.
With `C[C@H]1[C@H](OC(=O)CCC(=O)O)O[C@@H]2O[C@@]3(C)CC[C@H]4[C@H](C)CC[C@@H]1[C@@]24OO3` [Artesunate, artesunate, reference compound] the EC50 [1] was 4.87 nM and the EC50 (P. falciparum line B11; [5]) was 3.7 nM.
`CCN(CC)CCCC(C)Nc1ccnc2cc(Cl)ccc12` (stereo not shown) [CQ, chloroquine, reference compound] gave an EC50 [1] of 5.74 nM and an EC50 (P. falciparum line B11) of 5.36 nM.
With `Cn1cncc1[C@@](N)(c1ccc(Cl)cc1)c1ccc2c(c1)c(-c1cccc(Cl)c1)cc(=O)n2C` [Tipifarnib, reference compound] the “CC50 (concentration that reduced cell viability by 50%)” value (HepG2 cells) was 30000 nM.

— article PMC7616463, “Peptidic boronic acid Plasmodium falciparum SUB1 inhibitors with improved selectivity over human proteasome” (Journal of medicinal chemistry, 2024)
